We go through 1 substance from patent US20240384268A1, “Oligonucleotides” (Hudson Institute of Medical Research, priority 2021, published 2024).

The series concerns the target cGAS (Homo sapiens, UniProt Q8N884). As to the kind of experiment: ISD70-driven IP-10 production in HT-29 cells, ELISA. The note with it: 187.5 nM ASO overnight, ISD70 24 h. More on the design: endogenous in cells. The format is cell-based.

d = 2'-deoxy (DNA); m = 2'-O-methyl

cGAS, sequence (Q8N884 whole entry): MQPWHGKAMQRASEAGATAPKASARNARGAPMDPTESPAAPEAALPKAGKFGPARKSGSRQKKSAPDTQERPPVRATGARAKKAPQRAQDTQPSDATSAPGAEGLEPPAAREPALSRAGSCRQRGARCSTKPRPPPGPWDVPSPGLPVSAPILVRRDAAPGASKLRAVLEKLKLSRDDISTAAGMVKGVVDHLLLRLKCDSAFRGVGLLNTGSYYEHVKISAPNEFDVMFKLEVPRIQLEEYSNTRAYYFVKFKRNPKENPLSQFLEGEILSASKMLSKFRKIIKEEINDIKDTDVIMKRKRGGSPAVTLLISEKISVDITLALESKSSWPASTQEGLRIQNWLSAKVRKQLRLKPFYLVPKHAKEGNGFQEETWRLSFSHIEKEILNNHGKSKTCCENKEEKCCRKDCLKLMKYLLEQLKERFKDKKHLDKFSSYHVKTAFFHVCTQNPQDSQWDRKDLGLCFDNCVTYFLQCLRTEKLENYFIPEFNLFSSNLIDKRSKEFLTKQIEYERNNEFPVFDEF

As for “mG*mA*mU*mG*mG*T*T*C*C*A*G*T*C*C*C*mU*mC*mU*mU*mC (GAUGGTTCCAGTCCCUCUUC; antisense; sugars from the 5' end m5 d10 m5, all phosphorothioate, methylation of C not given here) [[LINC-PINT]1497.1]”, the “reduction of ISD70-dependent IP-10 production” value stood at 25%.
